ChEMBL document CHEMBL1201862, “PubChem BioAssay data set” (2004)
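Five compound concentrations were applied to cells in 96-well plates for 48 hours; endpoints were derived by simple linear interpolation of the resulting dose-response curve. At the GI50, growth is halved.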 The source made the active and inactive calls. No stated cut-off is given here; in the data, active = GI50 up to about 1.1 µM and inactive = higher.

Tests used:
Assay in all cases: growth of human tumour cells (NCI), 48 h
[1] = system: LXFL 529
[2] = system: M19-MEL
[3] = system: HOP-18
[4] = system: RXF 631
[5] = system: SNB-78
[6] = system: KM-20L2
[7] = system: XF498
[8] = system: DMS-273
[9] = system: DMS-114

Compound	GI50 [1]	GI50 [2]	GI50 [3]	GI50 [4]	GI50 [5]	GI50 [6]	GI50 [7]	GI50 [8]	GI50 [9]
COC(=O)c1nc(N)nc(O)c1CCCCCc1c(O)nc(N)nc1C(=O)OC	> 50 µM (inactive)	> 50 µM (inactive)	> 50 µM (inactive)	> 50 µM (inactive)	> 50 µM (inactive)	> 50 µM (inactive)	> 50 µM (inactive)	> 50 µM (inactive)	> 50 µM (inactive)
CCn1c2ccccc2c2ccc3c(c21)C(=O)C=CC3=O	1.93 µM (inactive)	10.7 µM (inactive)	11 µM (inactive)	–	22 µM (inactive)	–	3.84 µM (inactive)	17.2 µM (inactive)	6.65 µM (inactive)
CC1(c2ccccc2)CC(c2cccc([N+](=O)[O-])c2)=NO1 (configuration not stated)	94.2 µM (inactive)	> 100 µM (inactive)	> 100 µM (inactive)	> 100 µM (inactive)	> 100 µM (inactive)	–	–	> 100 µM (inactive)	44.2 µM (inactive)
CCN(CC)c1c(C(=O)/C=C/c2ccc(F)cc2)c(-c2ccccc2)nn(C)c1=O	4.6 µM (inactive)	6.64 µM (inactive)	21.2 µM (inactive)	–	14.4 µM (inactive)	11.8 µM (inactive)	–	6.62 µM (inactive)	5.32 µM (inactive)
NC1=NN(c2ccccc2)C(=O)C1C(=O)C(=O)Nc1ccc(Cl)c(Cl)c1 (configuration not stated)	–	> 100 µM (inactive)	> 100 µM (inactive)	> 100 µM (inactive)	> 100 µM (inactive)	> 100 µM (inactive)	–	> 100 µM (inactive)	> 100 µM (inactive)
COc1ccc2ccnc(Cc3ccc(OCc4ccccc4)c(OC)c3)c2c1	25.9 µM (inactive)	–	16.6 µM (inactive)	–	26.2 µM (inactive)	34.5 µM (inactive)	10.4 µM (inactive)	–	–
COC(OC)c1cccnc1C	> 100 µM (inactive)	> 100 µM (inactive)	> 100 µM (inactive)	> 100 µM (inactive)	> 100 µM (inactive)	> 100 µM (inactive)	> 100 µM (inactive)	> 100 µM (inactive)	> 100 µM (inactive)
COc1cc(C(CC(OC)OC)=C(C#N)C#N)cc(OC)c1OC	11.4 µM (inactive)	12.2 µM (inactive)	–	–	60.4 µM (inactive)	11.4 µM (inactive)	–	10.4 µM (inactive)	20.7 µM (inactive)
C/C(CC(=O)Nc1cc(Cl)c(Cl)cc1Cl)=N\NS(=O)(=O)c1ccc(C)cc1	36.2 µM (inactive)	32.7 µM (inactive)	–	44 µM (inactive)	29 µM (inactive)	41.8 µM (inactive)	28.7 µM (inactive)	–	28.1 µM (inactive)
CCN(CC)C(=O)Cc1c(C(=O)N(CC)CC)c(=O)nc2sccn12	> 100 µM (inactive)	> 100 µM (inactive)	> 100 µM (inactive)	–	–	> 100 µM (inactive)	> 100 µM (inactive)	> 100 µM (inactive)	> 100 µM (inactive)
CON(C)C(=O)CCCO	> 100 µM (inactive)	> 100 µM (inactive)	> 100 µM (inactive)	> 100 µM (inactive)	–	> 100 µM (inactive)	> 100 µM (inactive)	–	> 100 µM (inactive)
c1ccc2c(NCCCCCCNc3cccc4ccccc34)cccc2c1	> 100 µM (inactive)	> 100 µM (inactive)	> 100 µM (inactive)	> 100 µM (inactive)	> 100 µM (inactive)	> 100 µM (inactive)	> 100 µM (inactive)	> 100 µM (inactive)	49.1 µM (inactive)
O=[N+]([O-])c1cccc(C(O)/C(=N/O)c2nc3ccc(Cl)cc3nc2O)c1 (configuration not stated)	> 100 µM (inactive)	> 100 µM (inactive)	> 100 µM (inactive)	> 100 µM (inactive)	–	> 100 µM (inactive)	> 100 µM (inactive)	–	> 100 µM (inactive)
COc1ccc(C(=O)O[C@H]2[C@@H]3C=CO[C@@H](OC4OC(CO)C(O)C(O)C4O)[C@@H]3[C@@]3(CO)O[C@@H]23)cc1O (some centres not stated)	> 100 µM (inactive)	> 100 µM (inactive)	–	> 100 µM (inactive)	> 100 µM (inactive)	> 100 µM (inactive)	> 100 µM (inactive)	> 100 µM (inactive)	> 100 µM (inactive)
Cc1c2ccccc2c(=O)n2c(-c3ccccn3)cccc12	–	78 µM (inactive)	> 100 µM (inactive)	–	> 100 µM (inactive)	> 100 µM (inactive)	> 100 µM (inactive)	> 100 µM (inactive)	> 100 µM (inactive)
O=C(Nc1ccccc1-c1nc2ccccc2[nH]c1=O)c1ccccc1	24.6 µM (inactive)	32.5 µM (inactive)	–	–	24 µM (inactive)	39.6 µM (inactive)	24.6 µM (inactive)	22.9 µM (inactive)	19.5 µM (inactive)
C=CCC1C(=O)CC2(C)C(CC=C)C(=O)CC12C (configuration not stated)	> 100 µM (inactive)	> 100 µM (inactive)	> 100 µM (inactive)	> 100 µM (inactive)	–	> 100 µM (inactive)	> 100 µM (inactive)	> 100 µM (inactive)	–
O=Cc1c(O)ccc2ccc(O)c(-c3c(O)ccc4ccc(O)cc34)c12	75.3 µM (inactive)	> 100 µM (inactive)	49.5 µM (inactive)	–	> 100 µM (inactive)	> 100 µM (inactive)	–	> 100 µM (inactive)	96.2 µM (inactive)
CS(=O)(=O)OCCN1CCN(C(=O)c2ccc(Cl)c3c(Nc4ccc(S(=O)(=O)N=C(N)N)cc4)c4ccccc4nc23)CC1	–	> 100 µM (inactive)	–	> 100 µM (inactive)	–	> 100 µM (inactive)	> 100 µM (inactive)	> 100 µM (inactive)	> 100 µM (inactive)
C=Cc1ccc(C)[n+](C[Si](C)(C)O[Si](C)(C)C)c1	> 100 µM (inactive)	–	–	> 100 µM (inactive)	> 100 µM (inactive)	> 100 µM (inactive)	–	> 100 µM (inactive)	> 100 µM (inactive)
CSc1ccc2c(cc1=O)[C@@H](NC(=O)c1ccc(Cl)cc1)CCc1cc(O)c(O)c(O)c1-2	33.3 µM (inactive)	31.1 µM (inactive)	> 100 µM (inactive)	–	> 100 µM (inactive)	> 100 µM (inactive)	–	50.6 µM (inactive)	32.4 µM (inactive)
Cc1c(O)c(=O)ccn1C1OC(CO)C(O)C1O (configuration not stated)	> 100 µM (inactive)	> 100 µM (inactive)	–	–	> 100 µM (inactive)	45 µM (inactive)	46.2 µM (inactive)	82 µM (inactive)	–
Cc1cc2c(ccc3c(C)cc(=O)oc32)o1	> 100 µM (inactive)	> 100 µM (inactive)	> 55.6 µM (inactive)	> 100 µM (inactive)	> 58.5 µM (inactive)	> 100 µM (inactive)	40.6 µM (inactive)	> 100 µM (inactive)	> 100 µM (inactive)
C/C1=C\[C@H](C)C[C@H](C)OC(=O)C[C@H](c2ccc(O)cc2)NC(=O)[C@@H](Cc2c(Br)[nH]c3ccccc23)N(C)C(=O)[C@H](C)NC(=O)[C@@H](C)C1 [JASPAMIDE]	0.293 µM (active)	0.789 µM (active)	–	0.298 µM (active)	0.374 µM (active)	0.34 µM (active)	0.226 µM (active)	0.308 µM (active)	0.516 µM (active)
